# Key:
# MCF-7 (breast cancer) = experiment: Antiproliferative effect on MCF-7 cell line, 72 h exposure; format: cell-based, human; details: MCF-7, 72 hours of exposure
# Text: (§1) Different human Hep3B (hepatocellular carcinoma), MCF-7 (breast cancer), DU-145 (prostate cancer) cell lines were studied. They were selected on the basis of their ability to overexpress at least one protein from among reptin, pontin, and survivin. The stromal cells were also studied in order to determine the impact of the composition according to the invention in the tumor microenvironment. These cells were maintained in DMEM and supplemented with 10% fetal bovine serum (FBS) and 1% antibiotic-antimycotic solution (MSP) containing penicillin, streptomycin, and amphotericin B under standard growth conditions (5% CO2, 37° C., humidified atmosphere). The compositions above were dissolved and diluted in DMSO.
# (§2) The cells above were treated with increasing solutions for 72 h in complete cell media. All treatment and control protocols were prepared as described previously.
# DU-145 (prostate cancer) = experiment: Antiproliferative effect on DU-145 cell line, 72 h exposure; format: cell-based, human; details: DU-145, 72 hours of exposure
# Text: as §1, §2
# [1] = system: Hep3B (hepatocellular carcinoma); experiment: Antiproliferative effect on Hep3B cell line, 72 h exposure; format: cell-based, human; details: 72 hours of exposure
# Text: as §1, §2
# U251/AMD cells = details: cited from earlier work
# HCCLM3 cells = details: cited from earlier work
# [2] = rats, oral, 50 mg/kg, 18 consecutive days; cited from earlier work
Compound,antiproliferative effect (MCF-7 (breast cancer)),antiproliferative effect (DU-145 (prostate cancer)),antiproliferative effect [1],"IC50 of U251/AMD cells (U251/AMD cells; AMD, with beta-elemene) [µg/mL]",intracellular accumulation of AMD (U251/AMD cells; U251/AMD cells),expression of the BDNF protein (HCCLM3 cells; HCCLM3 cells),cell proliferation of HCCLM3 cells (HCCLM3 cells; as a function of concentration and time),mortality and systemic toxicity [2]
O=CC=Cc1ccccc1O [2-hydroxycinnamaldehyde],more pronounced antiproliferative effect,more pronounced antiproliferative effect,more pronounced antiproliferative effect,,,,,
"C=C[C@]1(C)CC[C@@H](C(=C)C)C[C@H]1C(=C)C [Composition 13-elemene, beta-elemene]",,,,0.051,increases the intracellular accumulation of AMD,,,
C=C(C)[C@@H]1CC[C@]2(C)CC[C@]3(C)[C@H](CC[C@@H]4[C@@]5(C)CC[C@H](O)C(C)(C)[C@@H]5CC[C@]43C)[C@@H]12 [lupeol],more pronounced antiproliferative effect,more pronounced antiproliferative effect,more pronounced antiproliferative effect,,,marked decrease,inhibits cell proliferation,neither mortality nor systemic toxicity
